Measured values taken from article PMC6186272 (Stem Cells Translational Medicine, 2018).

Experiments:
Wnt3a = assay: Quantitative RT-PCR of Wnt3a expression during cardiac differentiation; format: cell-based, human; conditions: CHIR99021 6 μM day 0, 1.5 μM day 1; SB203580 and TA-01 5 μM
[1] = tested on: HES‐3 (NKX2‐5eGFP/w reporter cell line); format: cell-based, human; conditions: for Induction of cardiomyogenesis in HES-3 cells: 5 μM, days 3–5, day 13; for Percentage of NKX2‐5/GFP positive cells: HES-3, 5 μM (IWR-1: 2.5 μM), days 3–5, flow cytometry day 13, DMSO 14%
H1 cells = assay: Monolayer cardiac differentiation, H1 cells; format: cell-based, human; conditions: days 3–5, day 13; for Cardiac differentiation in H1 cells: 5 μM; for NKX2‐5/cTnT‐positive cells: H1, 5 μM (IWR-1: 2.5 μM)
IMR‐90 cells = assay: Monolayer cardiac differentiation, IMR-90 cells; format: cell-based, human; conditions: 5 μM (IWR-1: 2.5 μM), days 3–5, day 13
hPSCs = conditions: for Cell proliferation during neural differentiation: 5 and 10 μM, days 1 to 9, cell count day 9
[2] = tested on: HES‐3 (NKX2–5eGFP/w reporter cell line); conditions: 5 μM, days 3–5, image analysis on day 13
[3] = tested on: NKX2‐5/GFP‐positive cells; conditions: added from days 4 to 8; cited from earlier work
BMPR1B kinase = conditions: percentage of control; cited from earlier work
[4] = Permeability test: mass retention to the artificial membrane; format: in vitro ADME
TGFBR2 [5] = target: T1, TGFBR2 (Homo sapiens, UniProt P37173); conditions: cited from earlier work
TGFBR2 [6] = target: T1, TGFBR2; conditions: 1 μM compound
[7] = tested on: SMAD2 phosphorylation (TGFβ pathway); conditions: 5 μM, day 3, 30 minutes to 8 hours
ALK5 = target: T2, ALK5 (Homo sapiens, UniProt P36897); assay: LanthaScreen Eu Kinase binding assay, ALK5; conditions: for IC50: read-out: ALK5 IC50 ± SEM, mean ± SEM, triplicate
T2 sequence (P36897 34-503): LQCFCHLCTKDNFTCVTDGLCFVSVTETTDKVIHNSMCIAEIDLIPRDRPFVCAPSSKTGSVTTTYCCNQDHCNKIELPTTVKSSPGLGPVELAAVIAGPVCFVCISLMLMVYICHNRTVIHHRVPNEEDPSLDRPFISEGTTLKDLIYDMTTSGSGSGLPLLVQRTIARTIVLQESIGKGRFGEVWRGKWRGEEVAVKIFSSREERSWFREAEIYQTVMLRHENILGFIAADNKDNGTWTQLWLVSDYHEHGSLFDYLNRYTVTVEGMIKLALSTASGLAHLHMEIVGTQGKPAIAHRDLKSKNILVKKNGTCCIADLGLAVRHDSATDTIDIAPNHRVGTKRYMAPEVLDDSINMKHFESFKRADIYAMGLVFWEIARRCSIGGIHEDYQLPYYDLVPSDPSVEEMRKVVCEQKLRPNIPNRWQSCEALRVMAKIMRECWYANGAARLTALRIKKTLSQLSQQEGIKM

[8] = tested on: SMAD/GFP reporter cell line (TGFβ pathway); conditions: 5 μM, then TGFβ3 2, 100, 1000 ng/ml

T1 sequence (P37173 23-567): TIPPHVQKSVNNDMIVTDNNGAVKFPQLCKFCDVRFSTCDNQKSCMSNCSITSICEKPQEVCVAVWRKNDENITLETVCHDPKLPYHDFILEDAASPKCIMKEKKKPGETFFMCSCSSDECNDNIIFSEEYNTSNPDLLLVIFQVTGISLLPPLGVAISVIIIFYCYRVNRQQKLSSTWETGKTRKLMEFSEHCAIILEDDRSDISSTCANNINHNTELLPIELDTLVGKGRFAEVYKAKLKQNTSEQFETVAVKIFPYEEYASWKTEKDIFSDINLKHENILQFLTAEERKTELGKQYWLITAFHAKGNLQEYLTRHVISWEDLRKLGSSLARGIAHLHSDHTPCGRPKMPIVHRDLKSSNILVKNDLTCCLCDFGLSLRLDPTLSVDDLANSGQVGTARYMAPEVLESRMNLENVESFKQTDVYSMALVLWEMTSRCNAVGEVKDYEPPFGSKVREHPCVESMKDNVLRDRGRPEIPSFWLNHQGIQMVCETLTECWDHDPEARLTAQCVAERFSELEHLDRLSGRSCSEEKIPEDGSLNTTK

SMILES: Cc1c[nH]c(-c2cnc(NCCNc3ccc(C#N)cn3)nc2-c2ccc(Cl)cc2Cl)n1 [CHIR99021]
- Suppression of Wnt3a expression on day 3 (Wnt3a): expression of Wnt3a was suppressed

SMILES: Cc1cccc(-c2[nH]ncc2-c2ccc(F)c(-c3cnn(CCO)c3)c2)n1 [Compound R268712]
- Induction of cardiomyogenesis in HES-3 cells [1]: failed to induce cardiomyogenesis
- Cardiac differentiation in H1 cells (H1 cells): promoted cardiac differentiation
- Cardiac differentiation in IMR-90 cells (IMR‐90 cells): promoted cardiac differentiation

SMILES: CCOC(=O)C1=C(C)NC2=C(C(=O)CC(C)(C)C2)C1c1ccc(-c2ccccc2)cc1 (stereo not shown) [ITD‐1]
- Percentage of NKX2‐5/GFP positive cells [1]: 25%
- NKX2‐5/cTnT‐positive cells (H1 cells): ~ 40%
- Cell proliferation during neural differentiation (hPSCs): inhibit cell proliferation

SMILES: Cc1ccc2nc(NC(=O)CSc3nc4c(c(=O)n3-c3ccccc3)SCC4)sc2c1 [IWP-2, reference compound]
- NKX2-5/GFP expression of EBs compared with TA-01 [2]: higher GFP expression than the lead compound TA‐01

SMILES: O=C(Nc1cccc2cccnc12)c1ccc(N2C(=O)[C@@H]3[C@H](C2=O)[C@@H]2C=C[C@H]3C2)cc1 [IWR-1]
- NKX2‐5/cTnT‐positive cells (H1 cells): approximately 80%
- Cardiac differentiation in IMR-90 cells (IMR‐90 cells): did not increase
- Axin 1 and 2 expression (Wnt/β‐catenin pathway; 2.5 μM): upregulation

SMILES: Cc1cccc(-c2[nH]ncc2-c2ccc3ncccc3n2)n1 [RepSox]
- Induction of cardiomyogenesis in HES-3 cells [1]: failed to induce cardiomyogenesis
- Cardiac differentiation in H1 cells (H1 cells): promoted cardiac differentiation
- Cardiac differentiation in IMR-90 cells (IMR‐90 cells): promoted cardiac differentiation

SMILES: C[S+]([O-])c1ccc(-c2nc(-c3ccncc3)c(-c3ccc(F)cc3)[nH]2)cc1 (stereo not shown) [SB203580]
- Suppression of Wnt3a expression on day 3 (Wnt3a): not observed

SMILES: Fc1ccc(Cl)cc1-c1nc(Nc2ccncc2)c2nccnc2n1 [SD208]
- Induction of cardiomyogenesis in HES-3 cells [1]: failed to induce cardiomyogenesis
- Cardiac differentiation in H1 cells (H1 cells): promoted cardiac differentiation
- Cardiac differentiation in IMR-90 cells (IMR‐90 cells): promoted cardiac differentiation

SMILES: Fc1ccc(-c2nc(-c3c(F)cccc3F)[nH]c2-c2ccncc2)cc1 [TA-01]
- Increase in the percentage expression of NKX2‐5/GFP‐positive cells over DMSO [3]: threefold
- Percentage of NKX2‐5/GFP positive cells [1]: 30%–40%
- BMPR1B binding, POC at 10 μM (BMPR1B kinase): 6.2
- Permeability compared with IWR-1 and CHIR99021 [4]: less permeable
- TGFBR2 binding, percentage of control at 10 μM (TGFBR2 [5]): 1.6
- Percentage inhibition of TGFBR2 at 1 μM (TGFBR2 [6]): 91%
- Suppression of Wnt3a expression on day 3 (Wnt3a): not observed

SMILES: Fc1ccc(-c2nc(-c3ccccc3)[nH]c2-c2ccncc2)cc1 [TI-14, 4-(4(5)-(4-Fluorophenyl)-2-phenyl-1H-imidazol-5(4)-yl)pyridine]
- NKX2-5/GFP expression of EBs compared with TA-01 [2]: higher GFP expression than the lead compound TA‐01

SMILES: Fc1ccc(-c2nc(-c3c(Cl)cccc3Cl)[nH]c2-c2ccncc2)cc1 [TI-15, 4-(2-(2,6-Dichlorophenyl)-4(5)-(4-fluorophenyl)-1H-imidazol-5(4)-yl)pyridine]
- Cell proliferation during cardiac differentiation, dosing days 2–5 ([1]; days 2–5, data not shown): inhibition of cell proliferation
- Cell growth during cardiac differentiation, dosing days 3–5 ([1]; days 3–5): does not inhibit cell growth
- Phosphorylation of SMAD2 protein at Ser 465/467 [7]: significantly reduced
- NKX2-5/GFP expression of EBs compared with TA-01 [2]: higher GFP expression than the lead compound TA‐01
- Permeability compared with IWR-1 and CHIR99021 [4]: less permeable
- Potency in the inhibition of ALK5 relative to TA‐01 (ALK5; ratio of IC50 values): approximately 10 times
- Cell growth during neural differentiation at 2.5 μM (hPSCs; 2.5 μM, days 1 to 9): not at the concentration of 2.5 μM
- Cell proliferation during neural differentiation (hPSCs): inhibit cell proliferation
- Numbers of GFP‐positive cells (nuclear SMAD/GFP reporter) [8]: reduced
- Percentage inhibition of TGFBR2 at 1 μM (TGFBR2 [6]): 80%
- β‐catenin phosphorylation on Ser552/675 and downstream TCF‐1/LEF‐1 expression (Wnt/β‐catenin pathway; 5 μM, day 3, 1, 4 and 8 hours after treatment): expression levels did not change

SMILES: COc1ccccc1-c1nc(-c2ccc(F)cc2)c(-c2ccncc2)[nH]1 [TI-16, 4-(2-(2-Methoxyphenyl)-4(5)-(4-fluorophenyl)-1H-imidazol-5(4)-yl)pyridine]
- NKX2-5/GFP expression of EBs compared with TA-01 [2]: higher GFP expression than the lead compound TA‐01

SMILES: COc1cccc(OC)c1-c1nc(-c2ccc(F)cc2)c(-c2ccncc2)[nH]1 [TI-18, 4-(2-(2,6-Dimethoxyphenyl)-4(5)-(4-fluorophenyl)-1H-imidazol-5(4)-yl)pyridine]
- IC50 (ALK5): 747 nM

SMILES: COc1cccc(F)c1-c1nc(-c2ccc(F)cc2)c(-c2ccncc2)[nH]1 [TI-20, 4-(2-(2-Fluoro-6-methoxyphenyl)-4(5)-(4-fluorophenyl)-1H-imidazol-5(4)-yl)pyridine]
- NKX2-5/GFP expression of EBs compared with TA-01 [2]: higher GFP expression than the lead compound TA‐01

SMILES: Fc1ccc(-c2nc(-c3c(F)cccc3Br)[nH]c2-c2ccncc2)cc1 [TI-21, 4-(2-(2-Bromo-6-fluorophenyl)-4(5)-(4-fluorophenyl)-1H-imidazol-5(4)-yl)pyridine]
- NKX2-5/GFP expression of EBs compared with TA-01 [2]: higher GFP expression than the lead compound TA‐01
- IC50 (ALK5): 10.9 nM

SMILES: O=[N+]([O-])c1cccc(Cl)c1-c1nc(-c2ccc(F)cc2)c(-c2ccncc2)[nH]1 [TI-24, 4-(2-(2-Chloro-6-nitrophenyl)-4(5)-(4-fluorophenyl)-1H-imidazol-5(4)-yl)pyridine]
- NKX2-5/GFP expression of EBs compared with TA-01 [2]: higher GFP expression than the lead compound TA‐01
- IC50 (ALK5): 13.1 nM

SMILES: COc1cc(O)c(-c2nc(-c3ccc(F)cc3)c(-c3ccncc3)[nH]2)c(OC)c1 [TI-25, 2-(4(5)-(4-Fluorophenyl)-5(4)-(pyridin-4-yl)-1H-imidazol-2-yl)-3,5-dimethoxyphenol]
- NKX2-5/GFP expression of EBs compared with TA-01 [2]: higher GFP expression than the lead compound TA‐01

SMILES: O=[N+]([O-])c1ccccc1-c1nc(-c2ccc(F)cc2)c(-c2ccncc2)[nH]1 [TI-26, 4-(4(5)-(4-Fluorophenyl)-2-(2-nitrophenyl)-1H-imidazol-5(4)-yl)pyridine]
- NKX2-5/GFP expression of EBs compared with TA-01 [2]: higher GFP expression than the lead compound TA‐01

SMILES: Cc1cccc(C)c1-c1nc(-c2ccc(F)cc2)c(-c2ccncc2)[nH]1 [TI-27, 4-(2-(2,6-Dimethylphenyl)-4(5)-(4-fluorophenyl)-1H-imidazol-5(4)-yl)pyridine]
- NKX2-5/GFP expression of EBs compared with TA-01 [2]: higher GFP expression than the lead compound TA‐01

SMILES: Fc1ccc(-c2nc(-c3c(F)cccc3I)[nH]c2-c2ccncc2)cc1 [TI-29, 4-(2-(2-Fluoro-6-iodophenyl)-4(5)-(4-fluorophenyl)-1H-imidazol-5(4)-yl)pyridine]
- IC50 (ALK5): 22.1 nM

SMILES: Fc1ccc(-c2nc(-c3ccc4ccccc4c3Br)[nH]c2-c2ccncc2)cc1 [TI-33, 4-(2-(1-Bromonaphthalen-2-yl)-4(5)-(4-fluorophenyl)-1H-imidazol-5(4)-yl)pyridine]
- NKX2-5/GFP expression of EBs compared with TA-01 [2]: higher GFP expression than the lead compound TA‐01

SMILES: Fc1ccc(-c2nc(C3CCCCC3)[nH]c2-c2ccncc2)cc1 [TI-34, 4-(2-Cyclohexyl-4(5)-(4-fluorophenyl)-1H-imidazol-5(4)-yl)pyridine]
- Percentage inhibition of TGFBR2 at 1 μM (TGFBR2 [6]): 81%

SMILES: Fc1ccc(-c2c(-c3ccncc3)ncn2-c2ccccc2)cc1 [TI-38, 4-(5-(4-Fluorophenyl)-1-phenyl-1H-imidazol-4-yl)pyridine]
- Cell proliferation during neural differentiation (hPSCs): inhibit cell proliferation

SMILES: Fc1ccc(-c2nc(-c3ccc4ccccc4c3F)[nH]c2-c2ccncc2)cc1 [TI-42, 4-(2-(1-Fluoronaphthalen-2-yl)-4(5)-(4-fluorophenyl)-1H-imidazol-5(4)-yl)pyridine]
- Permeability compared with IWR-1 and CHIR99021 [4]: less permeable
